The values below come from patent publication US8987328B2, “Esters of capsaicinoids as dietary supplements” (Trinity Laboratories, Inc., priority 2008, dated 2015).

For data set [1] the following is noted: p<0.05, cited from earlier work.
The conditions of data set [2]: i.v. administration, rats; cited from earlier work.
The conditions of data set [3]: cited from earlier work.
For data set [4] the following is noted: cited from earlier work. The source holds these as a separate data set.
On the set-up of data set [5]: species or system human. The note with it: in vivo.
Details of data set [6]: species or system human. The note with it: in vivo. The source holds these as a separate data set.
The conditions of data set [7]: in vivo, po.
The mark [8] stands for this setting: 30% lard diet, capsaicin 0.14% of diet.
[9] abbreviates: cholesterol-free diet, 4 mg per animal daily, relative to controls.
Where [10] appears, read: diet with 0.2% cholesterol, 4 mg per animal daily.

Read-outs that look alike come from different tables or passages of the source.

Take `COc1cc(CNC(=O)CCCCC=CC(C)C)ccc1O` [capsaicin, 8-methyl-N-vanillyl-6-nonenamide]: in data set [1] (OGTT in dogs), the plasma insulin levels entry is recorded as “elevation”. Also, the blood glucose levels in data set [1] (at 2.5 h in OGTT, n=6, control 6.40+/−0.13) was 4.91 mM. Also, in data set [2], the “time to distribution to brain, spinal cord, liver and blood” value was at most 20 min. Also, in data set [3] (30% lard diet, capsaicin 0.14% of diet, vs high-fat diet without capsaicin), the serum triglyceride levels result is on record as “significantly lower”. In data set [3] (setting [8]), the levels of cholesterol result is “not affected”, the “levels of free fatty acids” value was “not affected” and the levels of pre-beta-lipoprotein entry is “not affected”. In addition, the “weight of perirenal adipose tissue” value in data set [3] (high-fat diet rats) is “reduced in a dose-dependent manner”. For the same compound, in data set [4] (setting [9]), the HDL-cholesterol entry is recorded as “increased significantly”, the LDL-cholesterol entry is “increased significantly”, the VLDL cholesterol result is on record as “decreased significantly” and the total cholesterol entry is “increased significantly”. Further, in data set [4] (cholesterol-free diet, 4 mg per animal daily), the serum triglyceride concentrations entry is listed as “Neither drug had an effect”. In addition, in data set [4] (setting [10]), the HDL-cholesterol entry was “increased” and the VLDL-cholesterol result is “reduced”.

`COc1cc(CNC(=O)CCCCCCC(C)C)ccc1O` [dihydrocapsaicin]: in data set [4] (in vivo), the HDL-cholesterol result is listed as “increased significantly”, the VLDL cholesterol result is listed as “decreased significantly”, the VLDL-cholesterol entry is recorded as “reduced” and the serum triglyceride concentrations entry is recorded as “Neither drug had an effect”. Besides, the triglycerides result in data set [4] (in vivo) is recorded as “decreased significantly”.

In the case of “Palmitoyl Ester of Capsaicin USP [palmitoyl-capsaicin USP]”, in data set [5], the body weight entry is recorded as “maintained an average weight”; the “body weight fluctuation over and under average” value is recorded as 2-3 pounds. Further, in data set [6], the LDL cholesterol was around 110 mg/dL and the cholesterol level entry is recorded as “normal level”. Further, the “burning or irritation in the stomach” value in data set [7] is reported as “No individual complained of burning or irritation in the stomach”.
